Laboratory results as given in the NIST ThermoML archive (doi:10.1016/j.jct.2015.01.013).
Numbers after ± are expanded uncertainties.

Legend:
[1] = 298.15 K; 101.33 kPa; Liquid; Vibrating tube method
[2] = excess molar enthalpy (molar enthalpy of mixing); xn = mol fraction of the nth substance listed; conditions: 298.15 K, 101 kPa, Liquid, Flow calorimetry

**Q.** With `C=C(C)CC(C)(C)C` [2,4,4-trimethyl-1-pentene] as the compound, how does the mass density [1] read?
**A.** 710.7 ± 0.2 kg/m3

**Q.** With `C=C(C)CC(C)(C)C` [2,4,4-trimethyl-1-pentene] + CO as the compound, how does the excess molar enthalpy ([2]; x2 = 0.023) read?
**A.** 0.0571 ± 0.00287 kcal/mol

**Q.** And the excess molar enthalpy ([2]; x2 = 0.1)?
**A.** 0.107 ± 0.00526 kcal/mol

**Q.** What about the excess molar enthalpy ([2]; x2 = 0.198) of the same compound?
**A.** 0.125 ± 0.00621 kcal/mol

**Q.** And the excess molar enthalpy ([2]; x2 = 0.301)?
**A.** 0.138 ± 0.00669 kcal/mol

**Q.** What about the excess molar enthalpy ([2]; x2 = 0.398) of the same compound?
**A.** 0.14 ± 0.00669 kcal/mol

**Q.** And the excess molar enthalpy ([2]; x2 = 0.498)?
**A.** 0.14 ± 0.00669 kcal/mol

**Q.** What about the excess molar enthalpy ([2]; x2 = 0.598) of the same compound?
**A.** 0.135 ± 0.00645 kcal/mol

**Q.** What about the excess molar enthalpy ([2]; x2 = 0.698) of the same compound?
**A.** 0.122 ± 0.00598 kcal/mol

**Q.** What about the excess molar enthalpy ([2]; x2 = 0.798) of the same compound?
**A.** 0.102 ± 0.00502 kcal/mol

**Q.** And the excess molar enthalpy ([2]; x2 = 0.899)?
**A.** 0.0674 ± 0.00335 kcal/mol

**Q.** For `C1CCCCC1` [cyclohexane], which mass density [1] is on record?
**A.** 773.5 ± 0.2 kg/m3

**Q.** For `C1CCCCC1` [cyclohexane] + CC(C)O, which excess molar enthalpy ([2]; x2 = 0.0995) is on record?
**A.** 0.124 ± 0.00598 kcal/mol

**Q.** And the excess molar enthalpy ([2]; x2 = 0.2009)?
**A.** 0.168 ± 0.00813 kcal/mol

**Q.** And the excess molar enthalpy ([2]; x2 = 0.3009)?
**A.** 0.191 ± 0.00932 kcal/mol

**Q.** What about the excess molar enthalpy ([2]; x2 = 0.4014) of the same compound?
**A.** 0.199 ± 0.00956 kcal/mol

**Q.** What about the excess molar enthalpy ([2]; x2 = 0.5016) of the same compound?
**A.** 0.191 ± 0.00932 kcal/mol

**Q.** And the excess molar enthalpy ([2]; x2 = 0.6011)?
**A.** 0.173 ± 0.00837 kcal/mol

**Q.** And the excess molar enthalpy ([2]; x2 = 0.701)?
**A.** 0.143 ± 0.00693 kcal/mol

**Q.** And the excess molar enthalpy ([2]; x2 = 0.8005)?
**A.** 0.105 ± 0.00526 kcal/mol

**Q.** And the excess molar enthalpy ([2]; x2 = 0.9005)?
**A.** 0.0571 ± 0.00287 kcal/mol

**Q.** With `CO` [methanol] as the compound, how does the mass density [1] read?
**A.** 786.2 ± 0.2 kg/m3

**Q.** For `CC(C)O` [propan-2-ol], which mass density [1] is on record?
**A.** 780.8 ± 0.2 kg/m3
